Measured values as given in US10227388B2, “Peptides and combination of peptides for use in immunotherapy against non-small cell lung cancer and other cancers” (immatics biotechnologies GmbH, priority 2015, dated 2019).

How the values were obtained:
CD8+ T cells = test: In vitro immunogenicity: T-cell priming with artificial antigen presenting cells loaded with peptide/MHC complexes and anti-CD28 antibody, multimer readout; type: cell-based, human; conditions: for Wells positive [%]: HLA-A*02 restricted peptides, positive wells among evaluable; for in vitro immunogenicity, donors: percentage of positive donors; for in vitro immunogenicity, wells: percentage of positive wells
Experimental: In an aspect, the peptides are pre-screened for immunogenicity before being included in the warehouse. By way of example, and not limitation, the immunogenicity of the peptides included in the warehouse is determined by a method comprising in vitro T-cell priming through repeated stimulations of CD8+ T cells from healthy donors with artificial antigen presenting cells loaded with peptide/MHC complexes and anti-CD28 antibody.
In order to obtain information regarding the immunogenicity of the TUMAPs of the present invention, the inventors performed investigations using an in vitro T-cell priming assay based on repeated stimulations of CD8+ T cells with artificial antigen presenting cells (aAPCs) loaded with peptide/MHC complexes and anti-CD28 antibody.
In order to perform in vitro stimulations by artificial antigen presenting cells loaded with peptide-MHC complex (pMHC) and anti-CD28 antibody, the inventors first isolated CD8+ T cells from fresh HLA-A*02 leukapheresis products via positive selection using CD8 microbeads (Miltenyi Biotec, Bergisch-Gladbach, Germany) of healthy donors obtained from the University clinics Mannheim, Germany, after informed consent.
PBMCs and isolated CD8+ lymphocytes were incubated in T-cell medium (TCM) until use consisting of RPMI-Glutamax (Invitrogen, Karlsruhe, Germany) supplemented with 10% heat inactivated human AB serum (PAN-Biotech, Aidenbach, Germany), 100 U/ml Penicillin/100 μg/ml Streptomycin (Cambrex, Cologne, Germany), 1 mM sodium pyruvate (CC Pro, Oberdorla, Germany), 20 μg/ml Gentamycin (Cambrex). 2.5 ng/ml IL-7 (PromoCell, Heidelberg, Germany) and 10 U/ml IL-2 (Novartis Pharma, Nürnberg, Germany) were also added to the TCM at this step.
Generation of pMHC/anti-CD28 coated beads, T-cell stimulations and readout was performed in a highly defined in vitro system using four different pMHC molecules per stimulation condition and 8 different pMHC molecules per readout condition.
The purified co-stimulatory mouse IgG2a anti human CD28 Ab 9.3 (Jung et al., 1987) was chemically biotinylated using Sulfo-N-hydroxysuccinimidobiotin as recommended by the manufacturer (Perbio, Bonn, Germany). Beads used were 5.6 μm diameter streptavidin coated polystyrene particles (Bangs Laboratories, Illinois, USA).
pMHC used for positive and negative control stimulations were A*0201/MLA-001 (peptide […] (SEQ ID NO. 664) from modified Melan-A/MART-1) and A*0201/DDX5-001 ([…] from DDX5, SEQ ID NO. 665), respectively.
800.000 beads/200 μl were coated in 96-well plates in the presence of 4×12.5 ng different biotin-pMHC, washed and 600 ng biotin anti-CD28 were added subsequently in a volume of 200 μl. Stimulations were initiated in 96-well plates by co-incubating 1×10^6 CD8+ T cells with 2×10^5 washed coated beads in 200 μl TCM supplemented with 5 ng/ml IL-12 (PromoCell) for 3 days at 37° C. Half of the medium was then exchanged by fresh TCM supplemented with 80 U/ml IL-2 and incubating was continued for 4 days at 37° C. This stimulation cycle was performed for a total of three times. For the pMHC multimer readout using 8 different pMHC molecules per condition, a two-dimensional combinatorial coding approach was used as previously described (Andersen et al., 2012) with minor modifications encompassing coupling to 5 different fluorochromes. Finally, multimeric analyses were performed by staining the cells with Live/dead near IR dye (Invitrogen, Karlsruhe, Germany), CD8-FITC antibody clone SK1 (BD, Heidelberg, Germany) and fluorescent pMHC multimers. For analysis, a BD LSRII SORP cytometer equipped with appropriate lasers and filters was used. Peptide specific cells were calculated as percentage of total CD8+ cells. Evaluation of multimeric analysis was done using the FlowJo software (Tree Star, Oreg., USA). In vitro priming of specific multimer+CD8+ lymphocytes was detected by comparing to negative control stimulations. […]

HLA-A*02:01 = HLA-A*02:01 (Homo sapiens, UniProt P04439, D140Y/D185E/D98H/E176V/E277Q/G131W/G231S/I119V/I121R/I166T/I218V/L300P/L318F/N151K/N90K/P208A/P217A/Q86G/Q94H/R138H/R169H/T345S); test: MHC binding assay (UV-ligand exchange, ELISA, peptide exchange yield); conditions: binding of HLA-class I restricted peptides to HLA-A*02:01
Outline: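 Peptide–HLA-A*02:01 complexes made by UV-ligand exchange of a UV-cleavable peptide for the test peptide. Exchange yield measured by ELISA: 100-fold diluted monomers captured on streptavidin, 1 h at 37° C., detected with HRP anti-β2m and TMB, absorbance at 450 nm.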

Row | Peptide exchange (MHC class I binding score, peptide exchange yield) (HLA-A*02:01) | Substance | Wells positive [%] (CD8+ T cells) | in vitro immunogenicity, donors (CD8+ T cells) | in vitro immunogenicity, wells (CD8+ T cells)
1 | ″+++″ (≥50% = +++) | 247 (VLLPNDLLEKV; listed as Homo sapiens) [compound 247] | ″+″ (<20% = +) | – | –
2 | ″+++″ (≥50% = +++) | 283 (ALYIGDGYVIHLA; listed as Homo sapiens) [compound 283] | – | +++ (50%-69% = +++) | + (<20% = +)
3 | ″++″ (≥20% = ++) | 319 (SLEPQIQPV; listed as Homo sapiens) [compound 319] | ″+″ (<20% = +) | – | –
4 | ″+++″ (≥50% = +++) | 384 (ILFANPNIFV; listed as Homo sapiens) [compound 384] | ″+″ (<20% = +) | – | –
5 | ″+++″ (≥50% = +++) | 443 (GLWEIENNPTV; listed as Homo sapiens) [compound 443] | ″+″ (<20% = +) | – | –
6 | ″++++″ (≥75% = ++++) | 460 (AMLEKNYKL; listed as Homo sapiens) [compound 460] | ″+″ (<20% = +) | – | –
7 | ″+++″ (≥50% = +++) | 489 (KMWEELPEVV; listed as Homo sapiens) [compound 489] | ″+″ (<20% = +) | – | –
8 | ″++″ (≥20% = ++) | 499 (KIFDIDEAEEGV; listed as Homo sapiens) [compound 499] | ″+″ (<20% = +) | – | –
9 | ″++″ (≥20% = ++) | 511 (FLDPYCSASV; listed as Homo sapiens) [compound 511] | ″+″ (<20% = +) | – | –
10 | ″++″ (≥20% = ++) | 603 (FLIEPEHVNTV; listed as Homo sapiens) [compound 603] | ″+″ (<20% = +) | – | –

Continued, substance first:

Row | Substance | Peptide exchange (MHC class I binding score, peptide exchange yield) (HLA-A*02:01) | Wells positive [%] (CD8+ T cells) | in vitro immunogenicity, donors (CD8+ T cells) | in vitro immunogenicity, wells (CD8+ T cells)
11 | 2 (SLLEADPFL; listed as Homo sapiens) [compound 2] | ″+++″ (≥50% = +++) | ″+″ (<20% = +) | – | –
12 | 3 (SLASKLTTL; listed as Homo sapiens) [compound 3] | ″++++″ (≥75% = ++++) | ″+″ (<20% = +) | – | –
13 | 8 (FTLGNVVGMYL; listed as Homo sapiens) [compound 8] | ″++++″ (≥75% = ++++) | ″+″ (<20% = +) | – | –
14 | 11 (KIFEMLEGV; listed as Homo sapiens) [compound 11] | ″+++″ (≥50% = +++) | ″+″ (<20% = +) | – | –
15 | 36 (YVLEDLEVTV; listed as Homo sapiens) [compound 36] | ″++″ (≥20% = ++) | ″+″ (<20% = +) | – | –
16 | 38 (FLLEDDIHVS; listed as Homo sapiens) [compound 38] | ″+++″ (≥50% = +++) | ″+″ (<20% = +) | – | –
17 | 48 (ALAELYEDEV; listed as Homo sapiens) [compound 48] | ″+++″ (≥50% = +++) | ″+″ (<20% = +) | – | –
18 | 56 (KLYEGIPVLL; listed as Homo sapiens) [compound 56] | ″++++″ (≥75% = ++++) | ″+″ (<20% = +) | – | –
19 | 79 (SLFIGEKAVLL; listed as Homo sapiens) [compound 79] | ″+++″ (≥50% = +++) | ″+″ (<20% = +) | – | –
20 | 113 (GLLPTPLFGV; listed as Homo sapiens) [compound 113] | ″+++″ (≥50% = +++) | ″+″ (<20% = +) | – | –
21 | 118 (KLIDNNINV; listed as Homo sapiens) [compound 118] | ″+++″ (≥50% = +++) | ″+″ (<20% = +) | – | –
22 | 141 (YLDFSNNRL; listed as Homo sapiens) [compound 141] | ″++″ (≥20% = ++) | ″+″ (<20% = +) | – | –
23 | 143 (LLLDITPEI; listed as Homo sapiens) [compound 143] | ″++++″ (≥75% = ++++) | ″+″ (<20% = +) | – | –
24 | 150 (RLWEEGEELEL; listed as Homo sapiens) [compound 150] | ″+++″ (≥50% = +++) | ″+″ (<20% = +) | – | –
25 | 199 (ALQDVPLSSV; listed as Homo sapiens) [compound 199] | ″+++″ (≥50% = +++) | ″+″ (<20% = +) | – | –
26 | 648 (LLWGNAIFL; listed as Homo sapiens) [compound 648] | – | – | +++ (50%-69% = +++) | ++ (20%-49% = ++)
27 | 652 (TLWYRAPEV; listed as Homo sapiens) [compound 652] | – | – | ++++ (> = 70% = ++++) | +++ (50%-69% = +++)
28 | 659 (ILFPDIIARA; listed as Homo sapiens) [compound 659] | – | – | +++ (50%-69% = +++) | + (<20% = +)
29 | 662 (KIQEILTQV; listed as Homo sapiens) [compound 662] | – | – | +++ (50%-69% = +++) | + (<20% = +)
30 | 663 (KIQEMQHFL; listed as Homo sapiens) [compound 663] | – | – | +++ (50%-69% = +++) | + (<20% = +)
